This data set can be described thus: Water solubility. The class given is physicochemical.

With `CCCCOc1ccc(OCCCC)c2c1-c1nc3nc(nc4[nH]c([nH]c5nc(nc-2n1)-c1c(OCCCC)ccc(OCCCC)c1-5)c1c(OCCCC)ccc(OCCCC)c41)-c1c(OCCCC)ccc(OCCCC)c1-3` [762Pc, 1,4,8,11,15,18,22,25-Octabutoxy-29H,31H-phthalocyanine], the water solubility entry is reported as “negligible”.

The values are drawn from patent publication US12486245B2, “Sequential multi-step flash nanoprecipitation for the formation of nanoparticles with high core loadings” (The Trustees of Princeton University, priority 2019, dated 2025).
